Source: patent US4742047A, “Semi-synthetic peptide antibiotics” (Bristol-Myers Company, priority 1986, dated 1988)

Columns and labels:
ddy mice = conditions: single intraperitoneal administration
Protocol: The acute toxicity for compounds of Examples 1, 2, and 3 was determined in ddy mice by single intraperitoneal administration.

P388 leukemia = assay: Antitumor effect against in vivo murine transplantable P388 leukemia; design: species or system mice
Protocol: (§1) Antitumor activity of representative compounds of the present invention was determined using in vivo murine transplantable P388 leukemia and B16 melanoma models.
P388 leukemia: female CDF1 and male BDF1 mice were inoculated by intraperitoneal injection of 0.8 ml diluted ascitic fluid containing 10^6 cells.
(§2) Test materials were dissolved in 0.9% saline containing 10% dimethyl sulfoxide and graded doses of them were administered to mice intraperitoneally 24 hrs after tumor implantation. Two dosing schedules were used for the p388 leukemia experiment: once daily on day 1 through day 3 (QD 1→3); and once daily on day 1 through day 9 (QD 1→9). The QD 1→9 schedule was used for the B16 melanoma experiment.
(§3) Antitumor activity is evaluated as the increase in mediam survival time (MST) of treated (T) and control (C) animals for various dosage regimens expressed as a percentage ratio (T/C %=MST of treated.div.MST of control×100). For both in vivo P388 leukemia and in vivo B16 melanoma models, values for percentage ratios of 125 and above indicate significant antitumor effect.

B16 melanoma = assay: Antitumor effect against in vivo murine B16 melanoma; design: species or system mice; conditions: QD 1→9 ip
Protocol: as §1
B16 melanoma; male BDF1 mice were implanted with 0.5 ml of a 10% tumor brei intraperitoneally.
as §2, §3

SMILES	LD50 (ddy mice)	MST (% T/C) (P388 leukemia; 0.13 mg/kg/day, QD 1→9 ip)	MST (% T/C) (P388 leukemia; 0.25 mg/kg/day, QD 1→9 ip)	MST (% T/C) (P388 leukemia; 0.5 mg/kg/day, QD 1→9 ip)	MST (% T/C) (P388 leukemia; 1 mg/kg/day, QD 1→3 ip)	MST (% T/C) (P388 leukemia; 1 mg/kg/day, QD 1→9 ip)	MST (% T/C) (P388 leukemia; 2 mg/kg/day, QD 1→9 ip)	MST (% T/C) (P388 leukemia; 3 mg/kg/day, QD 1→3 ip)	MST (% T/C) (P388 leukemia; 4 mg/kg/day, QD 1→9 ip)	MST (% T/C) (P388 leukemia; 10 mg/kg/day, QD 1→3 ip)	MST (% T/C) (B16 melanoma; 1 mg/kg/day)	MST (% T/C) (B16 melanoma; 2 mg/kg/day)	MST (% T/C) (B16 melanoma; 4 mg/kg/day)	MST (% T/C) (B16 melanoma; .25 mg/kg/day)	MST (% T/C) (B16 melanoma; .5 mg/kg/day)	MST (% T/C) (P388 leukemia; 0.63 mg/kg/day, QD 1→9 ip)	MST (% T/C) (P388 leukemia; .3 mg/kg/day, QD 1→3 ip)	MST (% T/C) (B16 melanoma; .13 mg/kg/day)
CCCCCCCCCCCC(=O)N[C@H](C(=O)NC1CC(O)CCNC(=O)/C=C/C(C)NC1=O)[C@@H](C)O (stereo partly drawn) [Example 1, n-Dodecanoyl-III]	27 mg/kg	127 % T/C	132 % T/C	145 % T/C	130 % T/C	150 % T/C	159 % T/C	145 % T/C	173 % T/C	155 % T/C	121 % T/C	139 % T/C	155 % T/C	107 % T/C	113 % T/C	–	–	–
CCCCCCCC=CC=CC(=O)NC(C(=O)NC1CC(O)CCNC(=O)C=CC(C)NC1=O)C(C)O (stereo not drawn) [BU-2867T A, reference compound]	–	130 % T/C	150 % T/C	155 % T/C	145 % T/C	190 % T/C	Tox	Tox	–	–	116 % T/C	Tox	–	100 % T/C	113 % T/C	110 % T/C	130 % T/C	97 % T/C
CCCCCCCCCC(=O)N[C@H](C(=O)NC1CC(O)CCNC(=O)/C=C/C(C)NC1=O)[C@@H](C)O (stereo partly drawn) [Example 2, n-Decanoyl-III]	50 mg/kg	109 % T/C	123 % T/C	123 % T/C	123 % T/C	127 % T/C	145 % T/C	127 % T/C	155 % T/C	64 % T/C	–	–	–	–	–	–	–	–
CCCCCCCCCCCCCCCC(=O)N[C@H](C(=O)NC1CC(O)CCNC(=O)/C=C/C(C)NC1=O)[C@@H](C)O (stereo partly drawn) [Example 10, Palmitoyl-L-Threonyl-II]	–	–	–	–	114 % T/C	–	–	119 % T/C	–	138 % T/C	–	–	–	–	–	–	–	–
CCCCCC=CCCC=CC=CC(=O)NC(C(=O)NC1CC(O)CCNC(=O)C=CC(C)NC1=O)C(C)O (stereo not drawn) [BU-2867T B, reference compound]	–	125 % T/C	130 % T/C	145 % T/C	–	170 % T/C	180 % T/C	–	Tox	–	126 % T/C	Tox	–	111 % T/C	118 % T/C	130 % T/C	–	108 % T/C
CCCCCCCCCCCCCC(=O)N[C@H](C(=O)NC1CC(O)CCNC(=O)/C=C/C(C)NC1=O)[C@@H](C)O (stereo partly drawn) [Example 3, n-Tetradecanoyl-III]	> 25 mg/kg	118 % T/C	132 % T/C	132 % T/C	127 % T/C	150 % T/C	150 % T/C	132 % T/C	159 % T/C	55 % T/C	116 % T/C	124 % T/C	145 % T/C	113 % T/C	113 % T/C	–	–	–
CCCCCCCCCCCCCCC(O)C(=O)N[C@H](C(=O)NC1CC(O)CCNC(=O)/C=C/C(C)NC1=O)[C@@H](C)O (stereo partly drawn) [Example 5, 2-Hydroxy-hexadecanoyl-III]	–	–	–	–	118 % T/C	–	–	132 % T/C	–	132 % T/C	–	–	–	–	–	–	–	–
CCCCCCCCCC=CC=CC(=O)NC(C(=O)NC1CC(O)CCNC(=O)C=CC(C)NC1=O)C(C)O (stereo not drawn) [BU-2867T C, reference compound]	–	130 % T/C	160 % T/C	155 % T/C	124 % T/C	170 % T/C	205 % T/C	129 % T/C	65 % T/C	57 % T/C	113 % T/C	132 % T/C	Tox	103 % T/C	103 % T/C	115 % T/C	–	103 % T/C
CCCCCCCCC/C=C/C(=O)N[C@H](C(=O)NC1CC(O)CCNC(=O)/C=C/C(C)NC1=O)[C@@H](C)O (relative stereo) [Example 4, trans-2-Dodecenoyl-III]	–	–	–	–	132 % T/C	–	–	118 % T/C	–	–	–	–	–	–	–	–	118 % T/C	–
CCCCCCCCOc1ccc(C(=O)N[C@H](C(=O)NC2CC(O)CCNC(=O)/C=C/C(C)NC2=O)[C@@H](C)O)cc1 (stereo partly drawn) [Example 6, p-n-Octyloxybenzoyl-III]	–	140 % T/C	150 % T/C	155 % T/C	150 % T/C	Tox	–	Tox	–	–	–	–	–	–	–	120 % T/C	125 % T/C	–
